Measurements as given in patent publication US10669238B2, “Irreversible bruton's tyrosine kinase inhibitor” (HEFEI INSTITUTES OF PHYSICAL SCIENCE, CHINESE ACADEMY OF …, priority 2016, dated 2020).

Legend:
[1] = system: diffuse large B-cell lymphoma cell line OCI-LY10; assay: Cell proliferation (Cell Titer-Glo), OCI-LY10; assay type: cell-based; conditions: Homo sapiens; OCI-LY10, 72 hours; read-out: Effects on cell proliferation (GI50)
Method: (§1) The selectivity of Compound 1 in inhibiting the proliferation of cancer cells was further evaluated by testing the effect of Btk inhibitors on the growth of cancer cells. […]
(§2) In this example different concentrations (0.000508 μM, 0.00152 μM, 0.00457 μM, 0.0137 μM, 0.0411 μM, 0.123 μM, 0.370 μM, 1.11 μM, 3.33 μM, 10 μM) of Compound 1 and Compound 6 were respectively added into the above cells which were then cultured for 72 hours. The number of viable cells was determined via quantitative determination of ATP in living cells by using Cell Titer-Glo® (Promega, the USA) Chemical Luminescent Cell Viability Assay kit.

[2] = molecular target: T1, TEL-EGFR/T790-BaF3 cells (stably expressing TEL-EGFR-C797S point mutation kinase) (Homo sapiens, UniProt P00533, C797S); assay: Cell proliferation (Cell Titer-Glo), BaF3-tel-EGFR-C797S; assay type: cell-based; conditions: BaF3-tel-EGFR-C797S (mouse BaF3 cells), 72 hours; read-out: Effects on cell proliferation (GI50)
T1 construct: expressed in transfected cells; host or cells: mouse BaF3 cells, retroviral MSCV-Puro
T1 sequence (P00533 712-979 C797S limits assumed): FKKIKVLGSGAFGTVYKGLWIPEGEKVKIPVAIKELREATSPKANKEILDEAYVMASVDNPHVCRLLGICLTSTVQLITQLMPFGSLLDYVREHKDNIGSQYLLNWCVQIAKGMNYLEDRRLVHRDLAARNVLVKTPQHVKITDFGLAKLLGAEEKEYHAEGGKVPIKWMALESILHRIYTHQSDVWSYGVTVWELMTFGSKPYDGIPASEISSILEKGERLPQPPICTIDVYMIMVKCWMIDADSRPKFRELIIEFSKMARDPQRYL
Method: as §1, §2

[3] = system: diffuse large B-cell lymphoma cell lines TMD8; assay: Cell proliferation (Cell Titer-Glo), TMD8; assay type: cell-based; conditions: Homo sapiens, TMD8, 72 h, read-out: Effects on cell proliferation (GI50)
From the text: The following cells were adopted in the example: acute myelocytic leukemia cell strains (acute myelocytic leukemia, AML) HL-60, B-lymphoma cell Ramos, colon cancer cells HCT116, leukemic cells K562, B-cell lymphoma cells U2932, diffuse large B-cell lymphoma cell line OCI-LY10, diffuse histiocytic lymphoma cells SU-DHL-2, diffuse large B-cell lymphoma cell lines TMD8, leukemia cell OCI-AML-3, acute promyelocytic leukemia cell line NB-4 (Lu+), MDS-RAEB (myelodysplastic syndrome—excessive blasts) cell lines SKM-1, human leukocyte leukemia cells HEL, acute myeloid leukemia cell lines (acute myelocytic leukemia, AML) U937, acute myeloid leukemia cell lines (acute myelocytic leukemia, AML) MOLM14, acute myeloid leukemia cell lines (acute myelocytic leukemia, AML) MOLM13, acute myeloid leukemia cell lines (acute myelocytic leukemia, AML) M-07e, acute myeloid leukemia cell lines (acute myelocytic leukemia, AML) MV4-11, acute myeloid leukemia cell lines (acute myelocytic leukemia, AML) MOLM16, diffuse large B-cell lymphoma cell lines Pfeiffer, multiple myeloma cell lines (multiple myeloma) RPM18226, bone marrow plasma cell tumor cells AMO-1, mouse pro-B cells BaF3, all purchased from ATCC.

BTK protein kinase = BTK protein kinase (Homo sapiens, UniProt Q06187); assay: In vitro enzymatic activity against BTK (ADP-Glo); assay type: biochemical; conditions: for IC50: compound with BTK 4 hours at room temperature, ATP 10 μM, 37° C. 1 hour, values in nM
Sequence of BTK protein kinase (Q06187 whole entry): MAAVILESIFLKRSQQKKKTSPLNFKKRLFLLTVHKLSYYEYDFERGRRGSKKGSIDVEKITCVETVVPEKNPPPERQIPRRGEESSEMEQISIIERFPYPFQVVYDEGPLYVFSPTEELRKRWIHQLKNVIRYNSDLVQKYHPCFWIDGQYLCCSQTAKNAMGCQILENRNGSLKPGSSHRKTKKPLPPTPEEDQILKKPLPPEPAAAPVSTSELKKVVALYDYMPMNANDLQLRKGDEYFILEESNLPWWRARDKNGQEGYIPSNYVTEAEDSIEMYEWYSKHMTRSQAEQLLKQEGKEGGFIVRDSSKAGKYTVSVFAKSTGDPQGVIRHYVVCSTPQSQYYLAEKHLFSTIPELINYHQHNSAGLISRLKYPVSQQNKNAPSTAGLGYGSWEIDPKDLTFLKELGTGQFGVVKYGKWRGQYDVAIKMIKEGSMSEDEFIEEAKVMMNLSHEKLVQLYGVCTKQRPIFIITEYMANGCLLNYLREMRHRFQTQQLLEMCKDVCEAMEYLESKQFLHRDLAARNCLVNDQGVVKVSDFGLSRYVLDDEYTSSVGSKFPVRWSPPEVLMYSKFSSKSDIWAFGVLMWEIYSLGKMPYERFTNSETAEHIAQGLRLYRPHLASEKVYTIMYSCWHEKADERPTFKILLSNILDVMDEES
Method in brief: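 BTK (1.5 ng/μL enzyme solution) was preincubated with compound (final 10 μM to 0.003 μM) for 4 h at room temperature. Reaction ran 1 h at 37 °C with 10 μM ATP and 0.2 μg/μL poly(Glu,Tyr) 4:1 (final). ADP formed was measured by ADP-Glo luminescence, and IC50 was obtained by curve plotting.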

[4] = system: acute myeloid leukemia cell lines MV4-11; assay: Cell proliferation (Cell Titer-Glo), MV4-11; assay type: cell-based; conditions: Homo sapiens; MV4-11, 72 hours; read-out: Effects on cell proliferation (GI50)
Method: as §1, §2

[5] = system: acute myeloid leukemia cell lines MOLM14; assay: Cell proliferation (Cell Titer-Glo), MOLM14; assay type: cell-based; conditions: Homo sapiens, MOLM-14; MOLM14, 72 hours; read-out: Effects on cell proliferation (GI50)
Method: as §1, §2

[6] = system: B-cell lymphoma cells U2932; assay: Cell proliferation (Cell Titer-Glo), U2932; assay type: cell-based; conditions: Homo sapiens; U2932, 72 hours; read-out: Effects on cell proliferation (GI50)
Method: as §1, §2

[7] = system: acute myeloid leukemia cell lines U937; assay: Cell proliferation (Cell Titer-Glo), U937; assay type: cell-based; conditions: Homo sapiens, U-937; U937, 72 hours; read-out: Effects on cell proliferation (GI50)
Method: as §1, §2

[8] = molecular target: T2, TEL-BLK-BaF3 cells (stably expressing TEL-BLK activated kinase) (Homo sapiens, UniProt P51451); assay: Cell proliferation (Cell Titer-Glo), BaF3-tel-BLK; assay type: cell-based; conditions: BaF3-tel-BLK (mouse BaF3 cells), 72 hours; read-out: Effects on cell proliferation (GI50)
T2 construct: expressed in transfected cells; host or cells: mouse BaF3 cells, retroviral MSCV-Puro; the other entry of the earlier key: ETV6 (P41212, Transcription factor ETV6)
T2 sequence (P51451 241-494 limits assumed): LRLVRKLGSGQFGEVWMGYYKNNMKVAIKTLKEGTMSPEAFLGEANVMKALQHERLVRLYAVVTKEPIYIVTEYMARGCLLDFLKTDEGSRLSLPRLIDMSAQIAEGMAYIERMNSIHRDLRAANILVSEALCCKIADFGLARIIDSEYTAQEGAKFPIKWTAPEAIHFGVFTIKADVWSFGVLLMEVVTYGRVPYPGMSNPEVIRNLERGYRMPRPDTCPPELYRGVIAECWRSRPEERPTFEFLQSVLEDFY
Method: as §1, §2

[9] = system: acute myelocytic leukemia cell strains HL-60; assay: Cell proliferation (Cell Titer-Glo), HL60; assay type: cell-based; conditions: Homo sapiens, HL60, 72 hours, read-out: Effects on cell proliferation (GI50)
Method: as §1, §2

[10] = system: human leukocyte leukemia cells HEL; assay: Cell proliferation (Cell Titer-Glo), HEL; assay type: cell-based; conditions: 72 hours, read-out: Effects on cell proliferation (GI50)
Method: as §1, §2

[11] = system: acute myeloid leukemia cell lines MOLM16; assay: Cell proliferation (Cell Titer-Glo), MOLM-16; assay type: cell-based; conditions: MOLM-16, 72 hours, read-out: Effects on cell proliferation (GI50)
Method: as §1, §2

SMILES	GI50 [1] [µM]	GI50 [2] [µM]	GI50 [3] [µM]	IC50 (BTK protein kinase) [nM]	GI50 [4] [µM]	GI50 [5] [µM]	GI50 [6] [µM]	GI50 [7] [µM]	GI50 [8] [µM]	GI50 [9] [µM]	GI50 [10] [µM]	GI50 [11] [µM]	inhibitory effects on BTK protein (BTK protein kinase; ADP-Glo assay, in words)
C=CC(=O)Nc1cc(Nc2cc(-c3cccc(NC(=O)c4ccc(C(C)(C)C)cc4)c3C)cn(C)c2=O)ccc1C(=O)N1CCOCC1 [Compound 1, N-(3-(5-((3-acrylamide-4-(morpholin-4-carbonyl)phenyl)amino)-1-methyl-6-oxo-1,6-dihydropyridin-3-yl)-2-methylphenyl)-4-(tert-butyl)benzamide]	3.4	2.5	0.001	7.09	2.1	6.4	2.4	4.8	4.7	5.5	5.3	3.5	–
CCC(=O)Nc1cc(Nc2cc(-c3cccc(NC(=O)c4ccc(C(C)(C)C)cc4)c3C)cn(C)c2=O)ccc1C(=O)N1CCOCC1 [Compound 6, N-(3-(5-((3-propanamide-4-(morpholin-4-carbonyl)phenyl)amino)-1-methyl-6-oxo-1,6-dihydropyridin-3-yl)-2-methylphenyl)-4-(tert-butyl)benzamide]	3 to 10	1.8	0.75	207	4.8	> 10	> 10	> 10	5.4	> 10	> 10	> 10	relatively strong inhibitory effects
